Earlier results, collected in patent publication US20100285098A1, “ADHERING TROCHES WITH SANTACID FOR TREATMENT OF THROAT ESOPHAGUS AND STOMACH” (priority 2007, published 2010).

Tests used:
[1] = system: Streptococcus pyogenes
[2] = system: Helicobacter pylori

Row | Compound | absorbed into the blood (delivered to the stomach such as by capsule) | inhaled dose systemically absorbed (delivered topically by dry powder inhaler) | excretion (in vivo) | metabolism by the body (in vivo) | side effects (other than those caused by the delivery vehicle) | suppression of Streptococcus pyogenes [1] | suppression of Helicobacter pylori [2]
1 | CC(=O)N[C@H]1[C@H]([C@H](O)[C@H](O)CO)OC(C(=O)O)=C[C@@H]1N=C(N)N [Zanamavir, zanamavir] | 2% | 4-17% | excreted in the urine without change | not metabolized | Rare side effects | – | –
2 | OC[C@@H](O)[C@H](O)[C@@H](O)CO [xylitol] | – | – | – | – | – | suppressed | suppressed
